Laboratory results taken from ChEMBL document CHEMBL3217600, “The discovery and profile of PF-0868087, a CNS-sparing histamine H3 receptor antagonist for the treatment of allergic rhinitis” (Medchemcomm, 2012).
One block for each compound: values may come before it.

Experiments:
[1] = Distribution coefficient, log D of the compound at pH 7.4; format: physicochemical; details: octanol/water
[2] = Solubility of the compound; format: physicochemical
[3] = Apparent permeability from apical to basolateral side in dog RRCK cells; format: ADME, cell-based, Canis lupus familiaris, MDCKII-LE; details: MDCK
[4] = system: MDR1 (P-gp); assay: Efflux ratio of permeability from basolateral to apical side over apical to basolateral side of MDR1 transfected dog MDCK cells; format: ADME, cell-based, Canis lupus familiaris
[5] = system: BCRP; assay: Efflux ratio of permeability from basolateral to apical side over apical to basolateral side of BCRP transfected dog RRCK cells; format: ADME, cell-based, Canis lupus familiaris, MDCKII-LE
[6] = system: Nucleic Acid; assay: Ratio of drug level in CSF to free drug level in plasma in iv dosed rat administered at high multiple of H3R Ki measured after 4 hrs infusion; format: ADME, organism-based; details: in vivo
[7] = Ratio of free drug level in brain to plasma in iv dosed rat measured after 6 hrs infusion; format: ADME, organism-based; details: read-out: K(p,uu,brain)
[8] = Ratio of free drug level in brain to plasma in rat at 8 mg/kg/day, po for 8 days; format: ADME, organism-based; set-up: route oral; details: read-out: K(p,uu,brain)
[9] = Therapeutic index in EEG PKPD rat relative to CNS penetrant compound Z; format: organism-based; details: in vivo, read-out: TI
[10] = Oral bioavailability in rat; format: ADME, organism-based; details: in vivo
[11] = system: Rattus norvegicus; assay: Ex vivo receptor occupancy of histamine H3 receptor in iv dosed rat brain administered at 20 times free H3R Ki in plasma measured after 6 hrs infusion; format: functional
[12] = target: Voltage-gated inwardly rectifying potassium channel KCNH2 (Homo sapiens, UniProt Q12809); assay: Binding affinity to human ERG
[13] = Total Cmax in rat at 1 mg/kg, iv administered as bolus dose; format: ADME, organism-based; set-up: dose 1 mg/kg, route intravenous; details: in vivo
[14] = Total Cmax in rat at 2 mg/kg, po; format: ADME, organism-based; set-up: dose 2 mg/kg, route oral; details: in vivo
[15] = Total Cmax in dog at 0.2 mg/kg, iv infusion; format: ADME, organism-based, Canis lupus familiaris; set-up: dose 0.2 mg/kg, route intravenous; details: in vivo
[16] = Total Cmax in dog at 0.2 mg/kg, po; format: ADME, organism-based, Canis lupus familiaris; set-up: dose 0.2 mg/kg, route oral; details: in vivo
[17] = system: Rattus norvegicus; assay: Free Cmax in rat at 1 mg/kg, iv administered as bolus dose; format: ADME, organism-based; set-up: dose 1 mg/kg, route intravenous; details: in vivo
[18] = system: Rattus norvegicus; assay: Free Cmax in rat at 2 mg/kg, po; format: ADME, organism-based; set-up: dose 2 mg/kg, route oral; details: in vivo
[19] = system: Canis familiaris; assay: Free Cmax in dog at 0.2 mg/kg, iv infusion; format: ADME, organism-based, Canis lupus familiaris; set-up: dose 0.2 mg/kg, route intravenous; details: in vivo
[20] = system: Canis familiaris; assay: Free Cmax in dog at 0.2 mg/kg, po; format: ADME, organism-based, Canis lupus familiaris; set-up: dose 0.2 mg/kg, route oral; details: in vivo
[21] = Tmax in rat at 2 mg/kg, po; format: ADME, organism-based; set-up: dose 2 mg/kg, route oral; details: in vivo
[22] = Tmax in dog at 0.2 mg/kg, po; format: ADME, organism-based, Canis lupus familiaris; set-up: dose 0.2 mg/kg, route oral; details: in vivo
[23] = AUC in rat at 1 mg/kg, iv administered as bolus dose; format: ADME, organism-based; set-up: dose 1 mg/kg, route intravenous; details: plasma
[24] = AUC in rat at 2 mg/kg, po; format: ADME, organism-based; set-up: dose 2 mg/kg, route oral; details: plasma
[25] = AUC in dog at 0.2 mg/kg, iv infusion; format: ADME, organism-based, Canis lupus familiaris; set-up: dose 0.2 mg/kg, route intravenous; details: plasma
[26] = AUC in dog at 0.2 mg/kg, po; format: ADME, organism-based, Canis lupus familiaris; set-up: dose 0.2 mg/kg, route oral; details: plasma
[27] = Clearance in rat at 1 mg/kg, iv administered as bolus dose; format: ADME, organism-based; set-up: dose 1 mg/kg, route intravenous; details: in vivo
[28] = Clearance in dog at 0.2 mg/kg, iv infusion; format: ADME, organism-based, Canis lupus familiaris; set-up: dose 0.2 mg/kg, route intravenous; details: in vivo
[29] = Volume of distribution at steady state in rat at 1 mg/kg, iv administered as bolus dose; format: ADME, organism-based; set-up: dose 1 mg/kg, route intravenous; details: in vivo, read-out: Vdss
[30] = Volume of distribution at steady state in dog at 0.2 mg/kg, iv infusion; format: ADME, organism-based, Canis lupus familiaris; set-up: dose 0.2 mg/kg, route intravenous; details: in vivo, read-out: Vdss
[31] = Effective half life in rat at 1 mg/kg, iv administered as bolus dose; format: ADME, organism-based; set-up: dose 1 mg/kg, route intravenous; details: in vivo, read-out: t1/2eff (converted)
[32] = Effective half life in dog at 0.2 mg/kg, iv infusion; format: ADME, organism-based, Canis lupus familiaris; set-up: dose 0.2 mg/kg, route intravenous; details: in vivo, read-out: t1/2eff (converted)
[33] = Drug absorption in rat at 2 mg/kg, po; format: ADME, organism-based; set-up: dose 2 mg/kg, route oral; details: in vivo, read-out: Drug absorption
[34] = Oral bioavailability in rat at 2 mg/kg; format: ADME, organism-based; details: in vivo
[35] = Oral bioavailability in dog at 0.2 mg/kg; format: ADME, organism-based, Canis lupus familiaris; details: in vivo
[36] = system: Salmonella typhimurium; assay: Genotoxicity in Salmonella typhimurium TA98 expressing lux gene assessed as mutagenicity by BioLum Ames test; format: toxicity, organism-based; details: salmonella enterica subsp. enterica serovar typhimurium
[37] = system: Salmonella typhimurium; assay: Genotoxicity in Salmonella typhimurium TA100 expressing lux gene assessed as mutagenicity by BioLum Ames test; format: toxicity, organism-based; details: salmonella enterica subsp. enterica serovar typhimurium
[38] = system: CHO; assay: Genotoxicity in CHO cells by micronucleus test in presence of metabolic activation; format: toxicity, cell-based, Cricetulus griseus; details: chinese hamster
[39] = system: CHO; assay: Genotoxicity in CHO cells by micronucleus test in absence of metabolic activation; format: toxicity, cell-based, Cricetulus griseus; details: chinese hamster
[40] = Induction of phospholipidosis in transformed human liver epithelial cells; format: cell-based; details: epithelial cell
[41] = Toxicity in non-regulatory rat assessed as tolerability administered for 7 days; format: organism-based; details: in vivo
[42] = system: Rattus norvegicus; assay: Free drug level in non-regulatory rat administered for 7 days; format: ADME, organism-based; details: in vivo, 168 h
[43] = Dissociation constant, pKa of the compound; format: physicochemical
[44] = Ratio of free drug level in brain to plasma in dog at 1.5 mg/kg/day, po for 8 days; format: ADME, organism-based, Canis lupus familiaris; set-up: route oral; details: read-out: K(p,uu,brain)
[45] = target: T1, Histamine H3 receptor (Homo sapiens, UniProt Q9Y5N1); assay: Displacement of [3H]-N-alpha-methylhistamine from human recombinant histamine H3 receptor expressed in HEK293 cell membrane; format: cell membranes
[46] = target: T1, Histamine H3 receptor; assay: Displacement of [3H]-PF-05255650 from human recombinant histamine H3 receptor expressed in HEK293 cell membrane; format: cell membranes
[47] = target: T2, Histamine H3 receptor (Rattus norvegicus, UniProt Q9QYN8); assay: Displacement of [3H]-N-alpha-methylhistamine from rat recombinant histamine H3 receptor expressed in HEK293 cell membrane; format: cell membranes
[48] = target: T2, Histamine H3 receptor; assay: Displacement of [3H]-N-alpha-methylhistamine from histamine H3 receptor in rat brain; format: tissue-based
[49] = target: T1, Histamine H3 receptor; assay: Inhibition of human recombinant histamine H3 receptor expressed in HEK293 cells assessed as inhibition of imetit-induced reduction in NKH477-stimulated cAMP accumulation by DiscoveRxTM assay; format: functional, cell-based
[50] = target: T1, Histamine H3 receptor; assay: Inhibition of human recombinant histamine H3 receptor expressed in HEK293 cells by Glosensor functional assay; format: cell-based
[51] = target: Histamine H3 receptor (Cavia porcellus) (UniProt Q9JI35); assay: Inhibition of histamine H3 receptor in electrically contracted guinea pig ileum assessed as reduction of R-alpha-methyl histamine mediated relaxation; format: tissue-based
[52] = Binding affinity to sigma receptor (unknown origin); set-up: species or system Homo sapiens
[53] = system: HEK293; assay: Selectivity ratio of Ki for sigma receptor (unknown origin) to Ki for human recombinant histamine H3 receptor expressed in HEK-293 cells; format: cell-based
[54] = target: Histamine H1 receptor (Homo sapiens, UniProt P35367); assay: Binding affinity to human histamine H1 receptor
[55] = target: Histamine H2 receptor (Homo sapiens, UniProt P25021); assay: Binding affinity to human histamine H2 receptor
[56] = target: Histamine H4 receptor (Homo sapiens, UniProt Q9H3N8); assay: Binding affinity to human histamine H4 receptor

T1 sequence (Q9Y5N1 whole entry): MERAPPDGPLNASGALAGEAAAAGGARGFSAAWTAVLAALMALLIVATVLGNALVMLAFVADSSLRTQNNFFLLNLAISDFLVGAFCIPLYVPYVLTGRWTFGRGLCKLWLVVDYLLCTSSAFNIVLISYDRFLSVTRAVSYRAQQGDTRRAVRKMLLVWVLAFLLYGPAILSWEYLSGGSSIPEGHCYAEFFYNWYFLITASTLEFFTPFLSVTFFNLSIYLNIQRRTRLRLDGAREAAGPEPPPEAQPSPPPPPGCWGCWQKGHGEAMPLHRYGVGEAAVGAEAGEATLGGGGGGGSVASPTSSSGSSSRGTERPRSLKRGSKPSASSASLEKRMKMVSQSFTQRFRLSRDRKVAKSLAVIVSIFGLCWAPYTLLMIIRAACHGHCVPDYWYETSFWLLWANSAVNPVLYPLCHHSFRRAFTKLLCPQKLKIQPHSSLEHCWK
T2 sequence (Q9QYN8 whole entry): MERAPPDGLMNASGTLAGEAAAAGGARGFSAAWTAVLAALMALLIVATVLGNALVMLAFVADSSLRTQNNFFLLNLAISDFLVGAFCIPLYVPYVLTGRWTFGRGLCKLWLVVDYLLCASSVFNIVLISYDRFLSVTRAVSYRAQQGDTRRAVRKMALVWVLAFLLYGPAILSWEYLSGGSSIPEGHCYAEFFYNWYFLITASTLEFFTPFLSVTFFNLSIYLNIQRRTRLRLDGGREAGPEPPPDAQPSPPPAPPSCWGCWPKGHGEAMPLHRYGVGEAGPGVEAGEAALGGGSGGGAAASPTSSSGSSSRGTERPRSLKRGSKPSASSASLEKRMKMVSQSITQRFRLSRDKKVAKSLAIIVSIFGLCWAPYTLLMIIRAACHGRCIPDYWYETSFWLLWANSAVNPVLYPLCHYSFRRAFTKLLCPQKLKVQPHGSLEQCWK
Sequence of Histamine H3 receptor (Cavia porcellus) (Q9JI35 whole entry): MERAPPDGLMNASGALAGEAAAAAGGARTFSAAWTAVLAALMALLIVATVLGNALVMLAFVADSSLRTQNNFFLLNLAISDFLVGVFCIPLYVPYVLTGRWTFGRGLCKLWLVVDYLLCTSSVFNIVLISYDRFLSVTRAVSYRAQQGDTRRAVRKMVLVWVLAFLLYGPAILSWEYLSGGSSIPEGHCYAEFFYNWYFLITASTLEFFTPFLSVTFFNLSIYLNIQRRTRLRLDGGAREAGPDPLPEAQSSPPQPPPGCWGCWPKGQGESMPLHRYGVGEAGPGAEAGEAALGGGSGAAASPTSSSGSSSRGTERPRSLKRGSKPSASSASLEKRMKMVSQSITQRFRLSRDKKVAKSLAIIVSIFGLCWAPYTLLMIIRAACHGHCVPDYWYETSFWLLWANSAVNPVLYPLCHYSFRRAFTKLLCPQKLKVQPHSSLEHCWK
Sequence of Histamine H1 receptor (P35367 whole entry): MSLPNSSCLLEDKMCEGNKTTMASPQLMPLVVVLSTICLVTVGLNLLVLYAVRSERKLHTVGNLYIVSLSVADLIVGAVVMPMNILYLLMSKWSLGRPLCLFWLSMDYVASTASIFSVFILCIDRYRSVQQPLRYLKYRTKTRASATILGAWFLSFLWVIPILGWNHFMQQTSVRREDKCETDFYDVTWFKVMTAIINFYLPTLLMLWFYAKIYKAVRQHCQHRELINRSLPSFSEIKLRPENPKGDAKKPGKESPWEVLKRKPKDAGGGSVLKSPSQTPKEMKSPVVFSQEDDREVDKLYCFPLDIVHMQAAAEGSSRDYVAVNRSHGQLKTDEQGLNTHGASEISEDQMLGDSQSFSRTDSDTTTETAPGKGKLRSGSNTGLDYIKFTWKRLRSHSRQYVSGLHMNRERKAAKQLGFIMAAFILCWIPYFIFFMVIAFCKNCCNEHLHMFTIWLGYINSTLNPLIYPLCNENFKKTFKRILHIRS
Sequence of Voltage-gated inwardly rectifying potassium channel KCNH2 (Q12809 whole entry): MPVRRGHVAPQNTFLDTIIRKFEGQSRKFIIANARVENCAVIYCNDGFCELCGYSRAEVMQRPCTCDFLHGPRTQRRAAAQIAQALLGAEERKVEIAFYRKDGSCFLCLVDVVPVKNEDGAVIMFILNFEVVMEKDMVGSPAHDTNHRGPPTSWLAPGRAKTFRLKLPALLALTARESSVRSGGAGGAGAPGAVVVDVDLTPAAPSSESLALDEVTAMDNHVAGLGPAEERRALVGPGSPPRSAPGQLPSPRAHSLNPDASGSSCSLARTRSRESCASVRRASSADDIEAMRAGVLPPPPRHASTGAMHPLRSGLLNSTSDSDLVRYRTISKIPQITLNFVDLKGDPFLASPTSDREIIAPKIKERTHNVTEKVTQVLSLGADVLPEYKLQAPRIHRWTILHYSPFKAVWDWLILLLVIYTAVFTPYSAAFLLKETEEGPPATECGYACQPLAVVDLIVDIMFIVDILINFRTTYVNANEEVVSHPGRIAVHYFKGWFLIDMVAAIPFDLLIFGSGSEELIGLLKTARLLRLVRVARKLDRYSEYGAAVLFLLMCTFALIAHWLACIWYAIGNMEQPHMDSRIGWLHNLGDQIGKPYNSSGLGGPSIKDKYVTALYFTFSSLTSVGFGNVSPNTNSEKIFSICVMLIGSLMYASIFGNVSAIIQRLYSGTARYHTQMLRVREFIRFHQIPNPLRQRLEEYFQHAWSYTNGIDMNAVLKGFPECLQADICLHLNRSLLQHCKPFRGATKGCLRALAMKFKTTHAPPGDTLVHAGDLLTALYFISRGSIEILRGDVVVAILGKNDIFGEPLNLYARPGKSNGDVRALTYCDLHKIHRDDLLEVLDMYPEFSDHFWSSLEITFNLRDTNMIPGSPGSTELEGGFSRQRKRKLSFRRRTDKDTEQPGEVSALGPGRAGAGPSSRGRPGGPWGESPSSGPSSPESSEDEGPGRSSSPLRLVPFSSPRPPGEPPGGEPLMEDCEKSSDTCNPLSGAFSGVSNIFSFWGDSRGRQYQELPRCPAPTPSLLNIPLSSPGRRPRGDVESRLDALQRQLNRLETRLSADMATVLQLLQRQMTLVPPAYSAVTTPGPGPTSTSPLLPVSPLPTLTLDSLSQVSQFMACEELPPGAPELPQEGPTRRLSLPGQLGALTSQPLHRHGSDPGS
Sequence of Histamine H2 receptor (P25021 whole entry): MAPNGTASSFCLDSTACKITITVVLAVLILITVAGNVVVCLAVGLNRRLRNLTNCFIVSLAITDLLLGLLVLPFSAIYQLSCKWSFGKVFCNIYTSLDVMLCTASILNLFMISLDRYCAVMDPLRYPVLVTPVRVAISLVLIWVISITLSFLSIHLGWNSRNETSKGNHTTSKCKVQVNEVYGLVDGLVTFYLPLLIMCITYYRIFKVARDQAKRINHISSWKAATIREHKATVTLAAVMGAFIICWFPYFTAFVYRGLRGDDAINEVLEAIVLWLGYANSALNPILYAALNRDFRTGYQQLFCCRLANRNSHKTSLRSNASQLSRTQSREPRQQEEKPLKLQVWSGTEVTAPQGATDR

logD [1]: 1.2
solubility [2]: > 1000 µg/mL
Papp A→B [3]: 11 ×10⁻⁶ cm/s
efflux ratio [4]: 4.8
efflux ratio [5]: 3.7
Ratio [6]: 0.05
Kp uu at 6 h [7]: 0.1
Kp uu at 192 h [8]: 0.07
bioavailability [10]: 54%
Structure (SMILES): CC(C)N1CCC(Oc2ccc3c(n2)CCN(c2ccc(C(N)=O)cn2)C3)CC1
selectivity ratio [9]: 40
Occ [11]: 18%

Cmax [13]: 477 ng/mL
Cmax [14]: 89 ng/mL
Cmax [15]: 129 ng/mL
Cmax [16]: 142 ng/mL
fCmax [17]: 856 nM
fCmax [18]: 158 nM
fCmax [19]: 320 nM
fCmax [20]: 352 nM
Tmax [21]: 0.75 h
Tmax [22]: 0.9 h
AUC [23]: 776 ng·h/mL
AUC [24]: 649 ng·h/mL
AUC [25]: 548 ng·h/mL
AUC [26]: 727 ng·h/mL
clearance [27]: 27 mL/min/kg
clearance [28]: 6.1 mL/min/kg
Vd [29]: 4.1 L/kg
Vd [30]: 2.3 L/kg
half-life [31]: 1.9 h
half-life [32]: 4.5 h
Fa [33]: 57%
bioavailability [34]: 42%
bioavailability [35]: 133%
Drug uptake(free) [42]: 14.051 µM
pKa [43]: 9.78
logD [1]: 0
solubility [2]: > 1000 µg/mL
Papp A→B [3]: 2 ×10⁻⁶ cm/s
efflux ratio [4]: 3.3
efflux ratio [5]: 5.6
Ratio [6]: 0.06
Kp uu at 6 h [7]: 0.1
Kp uu at 192 h [8]: 0.07
Kp uu at 192 h [44]: 0.1
bioavailability [10]: 42%
Ki [45]: 9.6 nM
Ki [46]: 1.36 nM
Ki [47]: 90.6 nM
Ki [48]: 145 nM
Emax [49]: 195%
Ki [49]: 0.832 nM
Kb [50]: 0.42 nM
A2 [51]: 0.96 nM
Ki [52]: 3900 nM
Ki [54]: > 4000 nM
Ki [55]: > 4000 nM
Ki [56]: > 4000 nM
Structure (SMILES): CC(C)N1CCC(Oc2ccc(C3(C(N)=O)CCOCC3)cc2)CC1
Ki [12]: > 40000 nM
Activity [36]: Non-toxic
Activity [37]: Non-toxic
Activity [38]: Non-toxic
Activity [39]: Non-toxic
NOAEL [40]: 150 µM
NOAEL at 168 h [41]: 80 mg/kg/day
selectivity ratio [9]: 16
Ratio Ki [53]: > 400
